Source: patent US10246456B2, “IRAK4 inhibiting agents” (BIOGEN MA INC., priority 2014, dated 2019)
pIC50: −log10 of the molar value.

Target: IRAK4 (Homo sapiens (Human), UniProt Q9NWZ3)
Test: IRAK-4 AlphaScreen biochemical kinase assay
Conditions: 1 nM IRAK4, 1 mM ATP, 3.5 h at RT
Procedure, shortened: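 AlphaScreen read-out: streptavidin beads bind the biotinylated peptide and protein A beads bind the anti-phosphothreonine antibody, so energy transfer reports phosphorylation of the peptide. The kinase is human IRAK-4.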

IRAK4, sequence (Q9NWZ3 whole entry, species assumed): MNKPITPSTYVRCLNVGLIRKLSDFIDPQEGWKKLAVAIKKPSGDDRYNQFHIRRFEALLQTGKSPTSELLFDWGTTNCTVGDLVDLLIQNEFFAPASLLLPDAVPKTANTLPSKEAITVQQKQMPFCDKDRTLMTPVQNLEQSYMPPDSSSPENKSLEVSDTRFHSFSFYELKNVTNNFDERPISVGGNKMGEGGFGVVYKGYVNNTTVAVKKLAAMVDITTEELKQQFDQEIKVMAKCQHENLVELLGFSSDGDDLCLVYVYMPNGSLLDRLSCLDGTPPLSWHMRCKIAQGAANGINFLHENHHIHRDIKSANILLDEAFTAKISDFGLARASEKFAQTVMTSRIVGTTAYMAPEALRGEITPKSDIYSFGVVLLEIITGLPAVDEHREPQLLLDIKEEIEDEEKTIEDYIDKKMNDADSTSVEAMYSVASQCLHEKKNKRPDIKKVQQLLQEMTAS

| SMILES | pIC50 |
| --- | --- |
| CC(N)c1cccc(-c2ccc3cnn(-c4cccc(C(C)(C)N)n4)c3c2)n1 (stereo not shown) [Example 292, 2-(6-(6-(6-(1-aminoethyl)pyridin-2-yl)-1H-indazol-1-yl)pyridin-2-yl)propan-2-amine] | 5.00 to 6.00 |
| Cc1ccnc(-n2ncc3ccc(-c4cccc(C(C)N)n4)cc32)n1 (stereo not shown) [Example 296, 1-(6-(1-(4-methylpyrimidin-2-yl)-1H-indazol-6-yl)pyridin-2-yl)ethanamine] | 5.00 to 6.00 |
| Cc1cccc(-n2ncc3ccc(-c4cccc(C(C)(C)N)n4)cc32)n1 [Example 298, 2-(6-(1-(6-methylpyridin-2-yl)-1H-indazol-6-yl)pyridin-2-yl)propan-2-amine] | 6.00 to 7.00 |
| Cc1cccc(-n2ncc3ccc(-c4cn(C)c(C(C)O)n4)cc32)n1 (stereo not shown) [Example 299, 1-(1-methyl-4-(1-(6-methylpyridin-2-yl)-1H-indazol-6-yl)-1H-imidazol-2-yl)ethanol] | 5.00 to 6.00 |
| Cc1cccc(-n2ncc3ccc(-c4cn(C)c(CN)n4)cc32)n1 [Example 300, (1-methyl-4-(1-(6-methylpyridin-2-yl)-1H-indazol-6-yl)-1H-imidazol-2-yl)methanamine] | 5.00 to 6.00 |
| CC(N)c1cccc(-c2ccc3cnn(-c4cccc(C(C)(C)C(N)=O)n4)c3c2)n1 (stereo not shown) [Example 301, 2-(6-(6-(6-(1-aminoethyl)pyridin-2-yl)-1H-indazol-1-yl)pyridin-2-yl)-2-methylpropanamide] | 6.00 to 7.00 |
| Cc1cccc(-n2ncc3ccc(-c4cn(C)c(C(C)N)n4)cc32)n1 (stereo not shown) [Example 305, 1-(1-methyl-4-(1-(6-methylpyridin-2-yl)-1H-indazol-6-yl)-1H-imidazol-2-yl)ethanamine] | 6.00 to 7.00 |
| Cc1cccc(-n2ncc3ccc(-c4ccccn4)cc32)n1 [Example 306, 1-(6-methylpyridin-2-yl)-6-(pyridin-2-yl)-1H-indazole] | 6.00 to 7.00 |
| Cc1cccc(-n2ncc3ccc(-c4ccc5c(n4)C(N)CCCC5)cc32)n1 (stereo not shown) [Example 308, 2-(1-(6-methylpyridin-2-yl)-1H-indazol-6-yl)-6,7,8,9-tetrahydro-5H-cyclohepta[b]pyridin-9-amine] | 6.00 to 7.00 |
| Cc1cccc(-n2ncc3ccc(-c4cccc(CCC(F)(F)F)n4)cc32)n1 [Example 313, 1-(6-methylpyridin-2-yl)-6-(6-(3,3,3-trifluoropropyl)pyridin-2-yl)-1H-indazole] | 5.00 to 6.00 |
| Cc1cc(C)nc(-n2ncc3ccc(-c4cccc(C(C)N)n4)cc32)c1 (stereo not shown) [Example 315, 1-(6-(1-(4,6-dimethylpyridin-2-yl)-1H-indazol-6-yl)pyridin-2-yl)ethanamine] | 5.00 to 6.00 |
| Cc1cccc(-n2ncc3ccc(-c4csc(CO)n4)cc32)n1 [Example 320, (4-(1-(6-methylpyridin-2-yl)-1H-indazol-6-yl)thiazol-2-yl)methanol] | 6.00 to 7.00 |
| Cc1cccc(-n2ncc3ccc(-c4cn(C)cn4)cc32)n1 [Example 323, 6-(1-methyl-1H-imidazol-4-yl)-1-(6-methylpyridin-2-yl)-1H-indazole] | 6.00 to 7.00 |
| CCC[C@H](N)c1cccc(-c2cc(N3CCOCC3=O)c3cnn(-c4cccc(CO)n4)c3c2)n1 [Example 351, (S)-4-(6-(6-(1-aminobutyl)pyridin-2-yl)-1-(6-(hydroxymethyl)pyridin-2-yl)-1H-indazol-4-yl)morpholin-3-one] | 6.00 to 7.00 |
| Cc1ccn(-c2cc(-c3cccc([C@H](C)N)n3)cc3c2cnn3-c2cccc(CO)n2)n1 [Example 353, (S)-(6-(6-(6-(1-aminoethyl)pyridin-2-yl)-4-(3-methyl-1H-pyrazol-1-yl)-1H-indazol-1-yl)pyridin-2-yl)methanol] | > 7.00 |
| C[C@H](N)c1cccc(-c2cc(-c3csc(C(F)(F)F)n3)c3cnn(-c4cccc(CO)n4)c3c2)n1 [Example 382, (S)-(6-(6-(6-(1-aminoethyl)pyridin-2-yl)-4-(2-(trifluoromethyl)thiazol-4-yl)-1H-indazol-1-yl)pyridin-2-yl)methanol] | > 7.00 |
| C[C@H](N)c1cccc(-c2cc(-c3cc(C(F)(F)F)[nH]n3)c3cnn(-c4cccc(CO)n4)c3c2)n1 [Example 383, (S)-(6-(6-(6-(1-aminoethyl)pyridin-2-yl)-4-(5-(trifluoromethyl)-1H-pyrazol-3-yl)-1H-indazol-1-yl)pyridin-2-yl)methanol] | > 7.00 |
| CCC[C@H](N)c1cccc(-c2cc(-c3ncccn3)c3cnn(-c4cccc(CO)n4)c3c2)n1 [Example 384, (S)-(6-(6-(6-(1-aminobutyl)pyridin-2-yl)-4-(pyrimidin-2-yl)-1H-indazol-1-yl)pyridin-2-yl)methanol] | > 7.00 |
| C[C@H](N)c1cccc(-c2cc(-c3ncc(F)cn3)c3cnn(-c4cccc(CO)n4)c3c2)n1 [Example 385, (S)-(6-(6-(6-(1-aminoethyl)pyridin-2-yl)-4-(5-fluoropyrimidin-2-yl)-1H-indazol-1-yl)pyridin-2-yl)methanol] | > 7.00 |

The remaining lines, values ahead:

| pIC50 | SMILES |
| --- | --- |
| > 7.00 | NCc1cccc(-c2ccc3cnn(-c4cccc(CO)n4)c3c2)n1 [Example 291, (6-(6-(6-(aminomethyl)pyridin-2-yl)-1H-indazol-1-yl)pyridin-2-yl)methanol] |
| > 7.00 | CCc1cccc(-c2ncc3ccc(-c4cccc(C(C)N)n4)cn23)n1 (stereo not shown) [Example 293, 1-(6-(3-(6-ethylpyridin-2-yl)imidazo[1,5-a]pyridin-6-yl)pyridin-2-yl)ethanamine] |
| > 7.00 | CCC(N)c1cccc(-c2ccc3cnn(-c4cccc(CO)n4)c3c2)n1 (stereo not shown) [Example 294, (6-(6-(6-(1-aminopropyl)pyridin-2-yl)-1H-indazol-1-yl)pyridin-2-yl)methanol] |
| > 7.00 | Cc1cccc(-n2ncc3c(-c4ncc[nH]4)cc(-c4cccc(C(C)N)n4)cc32)n1 (stereo not shown) [Example 295, 1-(6-(4-(1H-imidazol-2-yl)-1-(6-methylpyridin-2-yl)-1H-indazol-6-yl)pyridin-2-yl)ethanamine] |
| > 7.00 | CC(N)c1cccc(-c2ccc3cnn(-c4nccc(C(F)(F)F)n4)c3c2)n1 (stereo not shown) [Example 297, 1-(6-(1-(4-(trifluoromethyl)pyrimidin-2-yl)-1H-indazol-6-yl)pyridin-2-yl)ethanamine] |
| > 7.00 | CC(N)c1cccc(-c2ccc3cnc(-c4cccc(CO)n4)n3c2)n1 (stereo not shown) [Example 302, (6-(6-(6-(1-aminoethyl)pyridin-2-yl)imidazo[1,5-a]pyridin-3-yl)pyridin-2-yl)methanol] |
| > 7.00 | Cc1cccc(-n2ncc3c(-c4nccs4)cc(-c4cccc(C(C)N)n4)cc32)n1 (stereo not shown) [Example 303, 1-(6-(1-(6-methylpyridin-2-yl)-4-(thiazol-2-yl)-1H-indazol-6-yl)pyridin-2-yl)ethanamine] |
| > 7.00 | Cc1cccc(-n2ncc3ccc(-c4cccc(C5(C#N)CCC5)n4)cc32)n1 [Example 304, 1-(6-(1-(6-methylpyridin-2-yl)-1H-indazol-6-yl)pyridin-2-yl)cyclobutanecarbonitrile] |
| > 7.00 | COc1cc(-c2cccc(C(C)N)n2)cc2c1cnn2-c1cccc(CO)n1 (stereo not shown) [Example 307, (6-(6-(6-(1-aminoethyl)pyridin-2-yl)-4-methoxy-1H-indazol-1-yl)pyridin-2-yl)methanol] |
| > 7.00 | CC(N)c1cccc(-c2cc(CO)c3cnn(-c4cccc(CO)n4)c3c2)n1 (stereo not shown) [Example 309, (6-(6-(1-aminoethyl)pyridin-2-yl)-1-(6-(hydroxymethyl)pyridin-2-yl)-1H-indazol-4-yl)methanol] |
| > 7.00 | Cc1cccc(-n2ncc3ccc(-c4csc(C(C)N)n4)cc32)n1 (stereo not shown) [Example 310, 1-(4-(1-(6-methylpyridin-2-yl)-1H-indazol-6-yl)thiazol-2-yl)ethanamine] |
| > 7.00 | CC(N)c1cccc(-c2cc(Cl)c3cnc(-c4cccc(C(F)(F)F)n4)n3c2)n1 (stereo not shown) [Example 311, 1-(6-(8-chloro-3-(6-(trifluoromethyl)pyridin-2-yl)imidazo[1,5-a]pyridin-6-yl)pyridin-2-yl)ethanamine] |
| > 7.00 | Cc1cccc(-n2ncc3ccc(-c4cccc(C5(C(N)=O)CCC5)n4)cc32)n1 [Example 312, 1-(6-(1-(6-methylpyridin-2-yl)-1H-indazol-6-yl)pyridin-2-yl)cyclobutanecarboxamide] |
| > 7.00 | CC(N)c1cccc(-c2ccc3cnn(-c4cccc(CCO)n4)c3c2)n1 (stereo not shown) [Example 314, 2-(6-(6-(6-(1-aminoethyl)pyridin-2-yl)-1H-indazol-1-yl)pyridin-2-yl)ethanol] |
| > 7.00 | CNC(=O)c1cc(-c2cccc(C(C)N)n2)cc2c1cnn2-c1cccc(CO)n1 (stereo not shown) [Example 316, 6-(6-(1-aminoethyl)pyridin-2-yl)-1-(6-(hydroxymethyl)pyridin-2-yl)-N-methyl-1H-indazole-4-carboxamide] |
| > 7.00 | CC(N)c1cccc(-c2cc(F)c3cnc(-c4cccc(C(F)(F)F)n4)n3c2)n1 (stereo not shown) [Example 317, 1-(6-(8-fluoro-3-(6-(trifluoromethyl)pyridin-2-yl)imidazo[1,5-a]pyridin-6-yl)pyridin-2-yl)ethanamine] |
| > 7.00 | CC[C@H](N)c1cccc(-c2ccc3cnn(-c4cccc(CO)n4)c3c2)n1 [Example 318, (S)-(6-(6-(6-(1-aminopropyl)pyridin-2-yl)-1H-indazol-1-yl)pyridin-2-yl)methanol] |
| > 7.00 | Cc1cccc(-n2ncc3c(-c4cc[nH]n4)cc(-c4cccc(C(C)N)n4)cc32)n1 (stereo not shown) [Example 319, 1-(6-(1-(6-methylpyridin-2-yl)-4-(1H-pyrazol-3-yl)-1H-indazol-6-yl)pyridin-2-yl)ethanamine] |
| > 7.00 | CC(N)c1cccc(-c2cc(F)c3cnn(-c4cccc(CO)n4)c3c2)n1 (stereo not shown) [Example 321, (6-(6-(6-(1-aminoethyl)pyridin-2-yl)-4-fluoro-1H-indazol-1-yl)pyridin-2-yl)methanol] |
| > 7.00 | CC[C@@H](N)c1cccc(-c2ccc3cnn(-c4cccc(CO)n4)c3c2)n1 [Example 322, (R)-(6-(6-(6-(1-aminopropyl)pyridin-2-yl)-1H-indazol-1-yl)pyridin-2-yl)methanol] |
| > 7.00 | C[C@H](N)c1cccc(-c2cc(-n3cccn3)c3cnn(-c4cccc(CO)n4)c3c2)n1 [Example 352, (S)-(6-(6-(6-(1-aminoethyl)pyridin-2-yl)-4-(1H-pyrazol-1-yl)-1H-indazol-1-yl)pyridin-2-yl)methanol] |
